In brackets after ≈: the same amount, converted by molar mass. Like-named read-outs stand apart in the source and are kept apart here.
Experiments:
[1] = Change in appearance of the salts at room temperature for 24 hours; format: physicochemical; settings: for Initial appearance: dried material; for Appearance (stored at R.T. for 24 hrs) / change in appearance (text summary of Table 4): room temperature, 24 hours
Method: In the case of the suspension and the gel, firstly it was vacuum dried under reduced pressure and secondly vacuum dried for 24 to 48 hours.

[2] = Stability evaluation: change in appearance under storage conditions; format: physicochemical
From the text: In order to evaluate the change in appearance of the compounds according to Comparative Examples and Examples, it was observed after storing each compound in accordance with the conditions shown in Table 6 below.

[3] = Stability evaluation: change in moisture content; format: physicochemical; settings: open state, room temperature (20 to 25° C., 50% or less), 3 days vs initial; FIG. 2
Method: In order to evaluate the change in moisture content, the compounds according to Examples and Comparative Examples were stored in an open state at room temperature (20 to 25° C., 50% or less), and the change was measured by the difference between the initial moisture content and the moisture content after 3 days.

[4] = Stability evaluation: change in the amount of related substances; format: physicochemical; settings: for change (increase) in the amount of related substances: open state, room temperature, 3 days, FIG. 3
[5] = Solubility of the compound of formula (1) in organic solvents (HPLC); format: physicochemical
[6] = 1 day, Acceleration (40±2° C. and 75±5% RH)
[7] = 1 day, Long-term (25±2° C. and 60±5% RH)
[8] = 1 day, Room temperature (20 to 25° C., 50% or less)

SMILES: CN(C)CCCNC(=O)/C(=C/CCCCC(=O)NO)COc1cccc2ccccc12.Cc1ccc(S(=O)(=O)O)cc1 [Toluensulfonic acid, para]
- Initial appearance [1]: Foam
- Appearance (stored at R.T. for 24 hrs) [1]: Gel-like

SMILES: CN(C)CCCNC(=O)/C(=C/CCCCC(=O)NO)COc1cccc2ccccc12.O=C(O)C(O)C(O)C(=O)O [Example 1, Alkylcarbamoyl Naphthalenyloxy Octenoyl Hydroxyamide Tartaric Acid Salt]
- Initial appearance [1]: Powder
- Appearance (stored at R.T. for 24 hrs) [1]: Powder
- change in appearance (text summary of Table 4) [1]: no change in appearance was observed
- Content (bottle package, 1 day, Acceleration (40±2° C. and 75±5% RH)): 89.1
- Content (bottle package, 1 day, Long-term (25±2° C. and 60±5% RH)): 99.1
- Content (bottle package, 3 days, Acceleration (40±2° C. and 75±5% RH)): 84.0
- Content (bottle package, 3 days, Long-term (25±2° C. and 60±5% RH)): 84.1
- Content (bottle package, 7 days, Acceleration (40±2° C. and 75±5% RH)): 78.5
- Content (bottle package, 7 days, Long-term (25±2° C. and 60±5% RH)): 78.5
- change in content (text summary of Tables 7 and 8) (open state and bottle package, all storage conditions): maintained constant at room temperature regardless of the packaging state
- Content (open state, 1 day, Acceleration (40±2° C. and 75±5% RH)): 92.3
- Content (open state, 3 days, Severe (60±2° C.)): 97.2
- Content (open state, 7 days, Room temperature): 100.1
- Content (open state, 7 days, Severe (60±2° C.)): 89.1
- Content (open state, Initial value): 98.9
- Content (polyethylene bottle package (added silica gel), Initial value): 98.9
- Appearance [2, 6]: Gel-like
- Appearance [2, 7]: Gel-like
- Appearance [2, 8]: Powder
- Appearance ([2]; 1 day, Severe (60±2° C.)): Powder
- Appearance ([2]; Initial value): Powder
- increase in moisture content [3]: 2%
- amount of formation of the related substances ([4]; according to temperature and storage period, FIGS. 4 and 5): maintained in a certain range at a relatively low temperature
- change (increase) in the amount of related substances [4]: 0.05%

SMILES: O=C(O)CC(=O)O [Malonic acid]
- Initial appearance [1]: Foam
- Appearance (stored at R.T. for 24 hrs) [1]: Gel-like

SMILES: O=C(O)CCCC(=O)O [Glutaric acid]
- Initial appearance [1]: Powder
- Appearance (stored at R.T. for 24 hrs) [1]: Gel-like

SMILES: O=C(O)/C=C\C(=O)O [Maleic acid]
- Initial appearance [1]: Foam
- Appearance (stored at R.T. for 24 hrs) [1]: Gel-1ike

SMILES: O=C(O)c1ccccc1 [Benzoic acid]
- Initial appearance [1]: Foam
- Appearance (stored at R.T. for 24 hrs) [1]: Gel-like

SMILES: O=C(O)/C=C/C(=O)O [Fumaric acid]
- Initial appearance [1]: Powder
- Appearance (stored at R.T. for 24 hrs) [1]: Gel-like

SMILES: CCS(=O)(=O)O [Ethanesulfonic acid]
- Initial appearance [1]: Foam
- Appearance (stored at R.T. for 24 hrs) [1]: Gel-like

SMILES: CC(=O)O [Acetic acid]
- Initial appearance [1]: Foam
- Appearance (stored at R.T. for 24 hrs) [1]: Gel-like

SMILES: O=S(=O)(O)c1ccc2ccccc2c1 [Naphthalene-2-sulfonic acid]
- Initial appearance [1]: Powder
- Appearance (stored at R.T. for 24 hrs) [1]: Gel-like

SMILES: CN(C)CCCNC(=O)/C(=C/CCCCC(=O)NO)COc1cccc2ccccc12.CS(=O)(=O)O [Methanensulfonic acid]
- Initial appearance [1]: Foam
- Appearance (stored at R.T. for 24 hrs) [1]: Gel-like

SMILES: Cl [Hydrochloric acid]
- Initial appearance [1]: Gel-like
- Appearance (stored at R.T. for 24 hrs) [1]: Gel-like

SMILES: O=C(O)CC(O)(CC(=O)O)C(=O)O [Citric acid]
- Initial appearance [1]: Foam
- Appearance (stored at R.T. for 24 hrs) [1]: Gel-like

SMILES: CN(C)CCCNC(=O)/C(=C/CCCCC(=O)NO)COc1cccc2ccccc12.O=C(O)[C@H](O)[C@@H](O)[C@H](O)[C@H](O)CO [Gluconic acid, (D−)]
- Initial appearance [1]: Powder
- Appearance (stored at R.T. for 24 hrs) [1]: Gel-like

SMILES: O=C(O)CNC(=O)c1ccccc1 [Hippuric acid]
- Initial appearance [1]: Foam
- Appearance (stored at R.T. for 24 hrs) [1]: Gel-like

SMILES: O=S(=O)(O)c1ccccc1 [Benzensulfonic acid]
- Initial appearance [1]: Foam
- Appearance (stored at R.T. for 24 hrs) [1]: Gel-like

SMILES: O=S(=O)(O)O [Sulfuric acid]
- Initial appearance [1]: Gel-like
- Appearance (stored at R.T. for 24 hrs) [1]: Gel-like

SMILES: O=C(O)c1ccc2ccccc2c1O [Naphthoic acid, 1-hydroxy-2]
- Initial appearance [1]: Powder
- Appearance (stored at R.T. for 24 hrs) [1]: Gel-like

SMILES: O=C(O)CCC(=O)O [Succinic acid]
- Initial appearance [1]: Powder
- Appearance (stored at R.T. for 24 hrs) [1]: Gel-like

SMILES: CN(C)CCCNC(=O)/C(=C/CCCCC(=O)NO)COc1cccc2ccccc12.O=C(O)C(F)(F)F [Trifluoracetic acid]
- Initial appearance [1]: Ge-1ike
- Appearance (stored at R.T. for 24 hrs) [1]: Gel-like

SMILES: CN(C)CCCNC(=O)/C(=C/CCCCC(=O)NO)COc1cccc2ccccc12 [Comparative Example 1, alkylcarbamoyl naphthalenyloxy octenoyl hydroxyamide]
- Initial appearance [1]: Foam
- Appearance (stored at R.T. for 24 hrs) [1]: Gel-like
- Appearance [2, 6]: Gel-like
- Appearance [2, 7]: Gel-like
- Appearance [2, 8]: Gel-like
- Appearance ([2]; 1 day, Severe (60±2° C.)): Gel-like
- Appearance ([2]; Initial value): Foam
- change in appearance (Table 6) ([2]; storage conditions of Table 6): changed from initial foam such as a sponge to a highly viscous liquid or gel structure
- increase in moisture content [3]: about 3%
- Solubility ([5]; 1,4-dioxane, 20° C.): 72.3 mg/mL (≈ 169 mM)
- Solubility ([5]; 1,4-dioxane, 50° C.): 72.3 mg/mL (≈ 169 mM)
- Solubility ([5]; 1-butanol, 20° C.): >58.8 mg/mL
- Solubility ([5]; 2-propanol, 20° C.): 73.8 mg/mL (≈ 173 mM)
- Solubility ([5]; 2-propanol, 50° C.): 77.3 mg/mL (≈ 181 mM)
- Solubility ([5]; Acetone, 20° C.): 43.3 mg/mL (≈ 101 mM)
- Solubility ([5]; Acetone, 50° C.): 43.7 mg/mL (≈ 102 mM)
- Solubility ([5]; Acetonitrile, 20° C.): 6.1 mg/mL (≈ 14.3 mM)
- Solubility ([5]; Acetonitrile, 50° C.): 16.5 mg/mL (≈ 38.6 mM)
- Solubility ([5]; Butan-2-ol, 20° C.): 39.6 mg/mL (≈ 92.6 mM)
- Solubility ([5]; Butan-2-ol, 50° C.): 72.0 mg/mL (≈ 168 mM)
- Solubility ([5]; Chloroform, 20° C.): >80.7 mg/mL
- Solubility ([5]; Dimethyl sulfoxide, 20° C.): >70.6 mg/mL
- Solubility ([5]; Ethanol, 20° C.): >77.4 mg/mL
- Solubility ([5]; Ethyl acetate, 20° C.): 4.6 mg/mL (≈ 10.8 mM)
- Solubility ([5]; Ethyl acetate, 50° C.): 20.3 mg/mL (≈ 47.5 mM)
- Solubility ([5]; Methanol, 20° C.): >68.4 mg/mL
- Solubility ([5]; Methylene Ketone, 20° C.): 66.6 mg/mL (≈ 156 mM)
- Solubility ([5]; Methylene Ketone, 50° C.): 69.7 mg/mL (≈ 163 mM)
- Solubility ([5]; N,N-dimethylformamide, 20° C.): >76.6 mg/mL
- Solubility ([5]; Propanol, 20° C.): >70.3 mg/mL
- Solubility ([5]; Tert-butylmethyl ether, 20° C.): 0.8 mg/mL (≈ 1.87 mM)
- Solubility ([5]; Tert-butylmethyl ether, 50° C.): 0.8 mg/mL (≈ 1.87 mM)
- Solubility ([5]; Tetrahydrofuran, 20° C.): >74.0 mg/mL
- Solubility ([5]; Toluene, 20° C.): 1.0 mg/mL (≈ 2.34 mM)
- Solubility ([5]; Toluene, 50° C.): 3.3 mg/mL (≈ 7.72 mM)
- change (increase) in the amount of related substances [4]: about 10%

SMILES: CCCCCCCCCCCCCCCCCC(=O)O [Stearic acid]
- Initial appearance [1]: Powder
- Appearance (stored at R.T. for 24 hrs) [1]: Powder
- change in appearance (text summary of Table 4) [1]: no change in appearance was observed
